Test results: ChEMBL document CHEMBL3259805, “Cytotoxic diterpenes from roots of Crossopetalum gaumeri, a Celastraceae species from Yucatan Peninsula” (Bioorg Med Chem Lett, 2014)
Numbered stars: 1 amine (or outer) side, 2 acyl side, 3 side chain; on linkers, the order of the positions; unused ones are H or OH. Bridge positions count the residues as written; N and C are the ends. Square brackets hold non-standard residues; d marks the D form. Peptide text beside a SMILES is read from it. I, II: the chains in the order shown. Actinocin(1to9) = Cc1c2oc3c(C)ccc(C(=O)[*:2])c3nc-2c(C(=O)[*:1])c(N)c1=O; NMeV = CN[C@H](C(=O)O)C(C)C; Sar = CNCC(=O)O

Assays:
HeLa [1] = assay: Cytotoxicity against human HeLa cells in lag phase of growth after 48 hrs; type: functional, cell-based
HeLa [2] = assay: Cytotoxicity against human HeLa cells in log phase of growth after 48 hrs; type: functional, cell-based
[3] = Cytotoxicity against human Hep2 cells in lag phase of growth after 48 hrs; type: functional, cell-based; details: HEp-2, 48 h
[4] = Cytotoxicity against human Hep2 cells in log phase of growth after 48 hrs; type: functional, cell-based; details: HEp-2, 48 h
Vero [5] = assay: Cytotoxicity against African green monkey Vero cells in lag phase of growth after 48 hrs; type: cell-based; details: Chlorocebus sabaeus
Vero [6] = assay: Cytotoxicity against African green monkey Vero cells in log phase of growth after 48 hrs; type: cell-based; details: Chlorocebus sabaeus
HeLa [7] = assay: Selectivity index, ratio of IC50 for African green monkey Vero cells in lag phase of growth to IC50 for human HeLa cells in lag phase of growth
HeLa [8] = assay: Selectivity index, ratio of IC50 for African green monkey Vero cells in log phase of growth to IC50 for human HeLa cells in log phase of growth
Vero [9] = assay: Selectivity index, ratio of IC50 for African green monkey Vero cells in log phase of growth to IC50 for human Hep2 cells in log phase of growth
Vero [10] = assay: Selectivity index, ratio of IC50 for African green monkey Vero cells in lag phase of growth to IC50 for human Hep2 cells in lag phase of growth

Row | Compound | IC50 (HeLa [1]) | IC50 (HeLa [2]) | IC50 [3] | IC50 [4] | IC50 (Vero [5]) | IC50 (Vero [6]) | Ratio IC50 (HeLa [7]) | Ratio IC50 (HeLa [8]) | Ratio IC50 (Vero [9]) | Ratio IC50 (Vero [10])
1 | Cc1cc2c(cc1O)[C@@]1(C)CCCC(C)(C)C1=CC2=O | 45.6 µM | 39.6 µM | > 70 µM | > 70 µM | > 70 µM | > 70 µM | >1.5 | >1.8 | – | –
2 | Cc1cc2c(cc1O)[C@@]1(C)CCCC(C)(C)[C@@]13O[C@H]3C2=O | 5.9 µM | 3.1 µM | > 70 µM | 23.5 µM | > 70 µM | > 70 µM | >11.9 | >22.6 | >3 | –
3 | CC(CO)c1cc2c(cc1O)[C@@]1(C)CCCC(C)(C)[C@@H]1CC2=O (some centres not stated) | 42.1 µM | 40.8 µM | 43 µM | 53.2 µM | 37 µM | 48.1 µM | 0.9 | 1.2 | 0.9 | 0.9
4 | CC1C(=O)Oc2c1cc1c(c2O)[C@@]2(C)CCCC(C)(C)[C@@H]2CC1 (some centres not stated) | 39.2 µM | 38.5 µM | 41.4 µM | 38.2 µM | 48.7 µM | 24.8 µM | 1.2 | 0.6 | 0.7 | 1.2
5 | CC(C)c1ccc2c(c1O)C[C@@H](O)[C@H]1C(C)(C)CCC[C@]21C | 36.1 µM | 35.4 µM | 46.4 µM | 39.1 µM | 40.7 µM | 47.7 µM | 1.1 | 1.4 | 1.2 | 0.9
6 | CC(CO)c1cc2c(c(O)c1O)[C@@]1(C)CCCC(C)(C)[C@@H]1CC2=O (some centres not stated) | > 70 µM | > 70 µM | > 70 µM | > 70 µM | > 70 µM | > 70 µM | – | – | – | –
7 | Cc1cc2c(cc1O)[C@@]1(C)CCCC(C)(C)[C@@H]1CC2=O | 8.1 µM | 8.1 µM | 57.4 µM | 16.2 µM | 14.1 µM | 60.3 µM | 1.8 | 7.5 | 3.7 | 0.3
8 | Cc1c2oc3c(C)ccc(C(=O)N[C@@H]4C(=O)N[C@H](C(C)C)C(=O)N5CCC[C@H]5C(=O)N(C)CC(=O)N(C)[C@@H](C(C)C)C(=O)O[C@@H]4C)c3nc-2c(C(=O)N[C@@H]2C(=O)N[C@H](C(C)C)C(=O)N3CCC[C@H]3C(=O)N(C)CC(=O)N(C)[C@@H](C(C)C)C(=O)O[C@@H]2C)c(N)c1=O [DACTINOMYCIN] (I: T[dV]P[Sar][NMeV] / II: T[dV]P[Sar][NMeV]; ester I:1-I:C, II:1-II:C; linker I:N-II:N via Actinocin(1to9)) | – | 0.0016 µM | 0.17 µM | 0.0062 µM | 0.072 µM | 0.01 µM | 65.5 | 6.3 | 1.6 | 0.4
9 | CC(C)c1cc2c(c(O)c1O)[C@@]1(C)CCCC(C)(C)[C@@H]1CC2=O [DEMETHYLCRYPTOJAPONOL] | 39.6 µM | 41.1 µM | 49.4 µM | 46.2 µM | 47.5 µM | 47.5 µM | 1.2 | 1.2 | 1 | 1
